Reference: patent US20150105252A1, “SUBSTITUTED PYRAZOLES AS HERBICIDES” (E I DU PONT DE NEMOURS AND COMPANY, priority 2013, published 2015)

Assays:
Details in all cases: scale 0 to 100
ryegrass, Italian = assay: Test D preemergence; assay type: in vivo, Lolium multiflorum
From the text: Seeds of plant species selected from bluegrass (annual bluegrass, Poa annua), blackgrass (Alopecurus myosuroides), canarygrass (littleseed canarygrass, Phalaris minor), chickweed (common chickweed, Stellaria media), galium (catchweed bedstraw, Galium aparine), bromegrass, downy (downy bromegrass, Bromus tectorum), field poppy (Papaver rhoeas), field violet (Viola arvensis), foxtail, green (green foxtail, Setaria viridis), deadnettle (henbit deadnettle, Lamium amplexicaule), ryegrass, Italian (Italian ryegrass, Lolium multiflorum), kochia (Kochia scoparia), lambsquarters (Chenopodium album), oilseed rape (Brassica napus), pigweed (redroot pigweed, Amaranthus retroflexus), chamomile (scentless chamomile, Matricaria inodora), speedwell (bird's-eye speedwell, Veronica persica), barley, spring (spring barley, Hordeum vulgare), wheat, spring (spring wheat, Triticum aestivum), buckwheat, wild (wild buckwheat, Polygonum convolvulus), mustard, wild (wild mustard, Sinapis arvensis), oat, wild (wild oat, Avena fatua), radish, wild (wild radish, Raphanus raphanistrum), windgrass (Apera spica-venti), Russian thistle (Salsola kali), barley, winter (winter barley, Hordeum vulgare), and wheat, winter (winter wheat, Triticum aestivum) were planted into a silt loam soil and treated preemergence with test chemicals formulated in a non-phytotoxic solvent mixture which included a surfactant.
At the same time, these species were planted in pots containing Redi-Earth® planting medium (Scotts Company, 14111 Scottslawn Road, Marysville, Ohio 43041) comprising spaghnum peat moss, vermiculite, wetting agent and starter nutrients and treated with postemergence applications of the test chemicals formulated in the same manner. Plants ranged in height from 2 to 18 cm (1- to 4-leaf stage). Treated plants and controls were maintained in a controlled growth environment for 14 to 21 days after which time all species were compared to controls and visually evaluated. Plant response ratings, summarized in Table D, are based on a scale of 0 to 100 where 0 is no effect and 100 is complete control. A dash (-) response means no test result.

common waterhemp = assay: Test F postemergence; assay type: in vivo, Amaranthus rudis
Method in brief: (§1)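 Seeds were sown in silt loam and sprayed preemergence with compound in a non-phytotoxic solvent mixture containing surfactant. Postemergence sprays went onto plants 2 to 18 cm tall (1- to 4-leaf stage). After 14 to 21 days in a greenhouse, injury was rated visually against untreated controls, 0 (no effect) to 100 (complete control).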

[1] = system: waterhemp_RES2 (ALS & HPPD resistant common waterhemp); assay: Test F postemergence; assay type: in vivo, Amaranthus rudis
Method in brief: as §1

[2] = system: waterhemp_RES1 (ALS & Triazine resistant common waterhemp); assay: Test F postemergence; assay type: in vivo, Amaranthus rudis
Method in brief: as §1

dayflower, VA = assay: Test F postemergence; assay type: in vivo, Commelina virginica
From the text: Seeds of plant species selected from corn (Zea mays), soybean (Glycine max), velvetleaf (Abutilon theophrasti), lambsquarters (Chenopodium album), wild poinsettia (Euphorbia heterophylla), pigweed, palmer (palmer pigweed, Amaranthus palmeri), common waterhemp (Amaranthus rudis), surinam grass (Brachiaria decumbens), large crabgrass (Digitaria sanguinalis), crabgrass, Brazil (Brazilian crabgrass, Digitaria horizontalis), fall panicum (Panicum dichotomiflorum), giant foxtail (Setaria faberii), green foxtail (Setaria viridis), goosegrass (Eleusine indica), johnsongrass (Sorghum halepense), common ragweed (Ambrosia elation), barnyardgrass (Echinochloa crus-galli), southern sandbur (Cenchrus echinatus), arrowleaf sida (Sida rhombifolia), Italian ryegrass (Lolium multiflorum), dayflower, VA (Virginia (VA) dayflower, Commelina virginica), field bindweed (Convolvulus arvensis), cocklebur (common cocklebur, Xanthium strumarium), morningglory (Ipomoea coccinea), nightshade (eastern black nightshade, Solanum ptycanthum), kochia (Kochia scoparia), yellow nutsedge (Cyperus esculentus), and hairy beggarticks (Bidens pilosa), were planted into a silt loam soil and treated preemergence with test chemicals formulated in a non-phytotoxic solvent mixture which included a surfactant.
At the same time, plants from these crop and weed species and also horseweed (Canada horseweed, Conyza canadensis), smartweed (ladysthumb smartweed, Polygonum persicaria), waterhemp_RES1, (ALS & Triazine resistant common waterhemp, Amaranthus rudis), and waterhemp_RES2, (ALS & HPPD resistant common waterhemp, Amaranthus rudis) were treated with postemergence applications of test chemicals formulated in the same manner. Plants ranged in height from 2 to 18 cm for postemergence treatments (1- to 4-leaf stage). Treated plants and controls were maintained in a greenhouse for 14 to 21 days, after which time all species were compared to controls and visually evaluated. Plant response ratings, summarized in Table F, are based on a scale of 0 to 100 where 0 is no effect and 100 is complete control. A dash (-) response means no test result.

Question: Which “Plant response rating, Ryegrass, Italian” value (ryegrass, Italian; 62 g ai/ha) does the source give for CCOc1cc(C(=O)NC(C)C)nn1Cc1ccnc(C(F)(F)F)c1 [Compound 188] here?
Answer: Its value is 75.

Question: And the “Plant response rating, Ryegrass, Italian” value (ryegrass, Italian; 125 g ai/ha)?
Answer: Its value is 85.

Question: And the “Plant response rating, Ryegrass, Italian” value (ryegrass, Italian; 250 g ai/ha)?
Answer: Its value is 95.

Question: And the “Plant response rating, Common Waterhemp” value (common waterhemp; Postemergence, 31 g ai/ha)?
Answer: The value was 60.

Question: What about the “Plant response rating, Common Waterhemp” value (common waterhemp; Postemergence, 125 g ai/ha) of the same compound?
Answer: Its value is 80.

Question: And the “Plant response rating, Common Waterhemp” value (common waterhemp; Postemergence, 250 g ai/ha)?
Answer: Its value is 80.

Question: And the “Plant response rating, Common Waterhemp” value (common waterhemp; postemergence, 62 g ai/ha)?
Answer: Its value is 70.

Question: And the “Plant response rating, Common Waterhemp” value (common waterhemp; postemergence, 500 g ai/ha)?
Answer: Its value is 90.

Question: And the “Plant response rating, Waterhemp_RES2” value ([1]; Postemergence, 31 g ai/ha)?
Answer: Its value is 65.

Question: And the “Plant response rating, Waterhemp_RES2” value ([1]; Postemergence, 125 g ai/ha)?
Answer: The value was 50.

Question: What about the “Plant response rating, Waterhemp_RES2” value ([1]; Postemergence, 250 g ai/ha) of the same compound?
Answer: The value was 50.

Question: And the “Plant response rating, Waterhemp_RES2” value ([1]; postemergence, 62 g ai/ha)?
Answer: Its value is 70.

Question: And the “Plant response rating, Waterhemp_RES2” value ([1]; postemergence, 500 g ai/ha)?
Answer: The value was 60.

Question: And the “Plant response rating, Waterhemp_RES1” value ([2]; Postemergence, 31 g ai/ha)?
Answer: Its value is 60.

Question: What about the “Plant response rating, Waterhemp_RES1” value ([2]; Postemergence, 125 g ai/ha) of the same compound?
Answer: The value was 50.

Question: What about the “Plant response rating, Waterhemp_RES1” value ([2]; Postemergence, 250 g ai/ha) of the same compound?
Answer: Its value is 80.

Question: What about the “Plant response rating, Waterhemp_RES1” value ([2]; postemergence, 62 g ai/ha) of the same compound?
Answer: Its value is 70.

Question: What about the “Plant response rating, Waterhemp_RES1” value ([2]; postemergence, 500 g ai/ha) of the same compound?
Answer: Its value is 85.

Question: And the “Plant response rating, Dayflower, VA” value (dayflower, VA; Postemergence, 31 g ai/ha)?
Answer: Its value is 40.

Question: What about the “Plant response rating, Dayflower, VA” value (dayflower, VA; Postemergence, 125 g ai/ha) of the same compound?
Answer: The value was 70.

Question: And the “Plant response rating, Dayflower, VA” value (dayflower, VA; Postemergence, 250 g ai/ha)?
Answer: Its value is 90.

Question: What about the “Plant response rating, Dayflower, VA” value (dayflower, VA; postemergence, 62 g ai/ha) of the same compound?
Answer: Its value is 50.

Question: What about the “Plant response rating, Dayflower, VA” value (dayflower, VA; postemergence, 500 g ai/ha) of the same compound?
Answer: Its value is 90.
